Key:
[1] = biological target: T1, RORγt (Homo sapiens, UniProt P51449); experiment: Indigo Biosciences Human RAR-related Orphan Receptor, Gamma Reporter Assay (in vitro inhibition of RORγt); type: cell-based; conditions: RORγt reporter cells, luciferase readout, 22-24 h incubation; read-out: IC50 range
T1 sequence (P51449 269-508 limits assumed): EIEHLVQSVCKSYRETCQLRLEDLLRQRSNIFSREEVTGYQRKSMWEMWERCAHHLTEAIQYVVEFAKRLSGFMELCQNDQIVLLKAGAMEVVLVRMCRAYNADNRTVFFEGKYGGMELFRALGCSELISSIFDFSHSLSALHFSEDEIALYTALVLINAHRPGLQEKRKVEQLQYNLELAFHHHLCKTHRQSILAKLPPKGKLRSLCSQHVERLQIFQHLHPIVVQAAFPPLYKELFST
Experimental: The in vitro inhibition of RORγt was measured using Indigo Biosciences Human RAR-related Orphan Receptor, Gamma Reporter Assay System (Product #IB304001-32) as described in the technical manual. In brief, 200 μL of Reporter Cells is dispensed into wells of the assay plate and preincubated for 4-6 h. Following the pre-incubation period, culture media are discarded and 200 µL/well of the prepared 1×-concentration treatment media are added. Following 22-24 h incubation, treatment media are discarded and Luciferase Detection Reagent is added. The intensity of light emission (in units of ‘Relative Light Units’; RLU) from each assay well is quantified using a plate-reading luminometer. Average values of RLU were determined for each treatment concentration. Non-linear regression analyses were performed and IC50 values determined using GraphPad Prism software. Provided inverse-agonists ursolic acid served as positive control.

[2] = Cell viability assay accompanying the SARS-CoV-2 assay; type: cell-based; conditions: cell viability assay of the SARS-CoV-2 test
Description: (§1) The assay for viral replication (YFP) and the cell viability assay has been described in general in Pathogens 2021; 10:1076 and applied to compounds of the present invention furnished the following results: […]

[3] = test system: SARS-CoV-2; experiment: Antiviral activity on SARS-CoV-2, viral replication (YFP) assay; type: cell-based; conditions: Severe acute respiratory syndrome coronavirus 2, read-out: EC50 range
Description: as §1

[4] = Mouse pharmacokinetics, oral or intravenous cassette dosing; type: in vivo, mice (C57BL/6J); conditions: C57BL/6J, whole blood, 3 female mice, 5 mg/kg oral cassette, sampling 0.25-8 h
Experimental: The pharmacokinetics of the compounds of the present invention was evaluated in 3 male and 3 female mice (C57BL/6J, 8 week old) after oral or intravenous cassette dosing to assess the oral bioavailability. Dose was 5 mg/kg (oral) and 1 mg/kg (intravenous), application volume was 5 mL/kg (oral) and 0.5 mL/kg (intravenous), vehicle was 5% solutol, 95% NaCl solution (at 0.9% saline concentration) for oral and 5% solutol, 5% Ethanol, 90% NaCl solution (at 0.9% saline concentration) for intravenous. At each designated time point (0.25, 0.5, 1, 2, 4, 8 and 24 h after dosing), 20 μL whole blood were collected from the tail vein into Li-heparin tubes, frozen on dry ice within 1-2 minutes of sampling and stored at −20° C. until processed for LC-MS analysis. The obtained data is as follows:
(§2) The pharmacokinetics of additional compounds of the present invention was evaluated in 3 female mice (C57BL/6J, 8 week old) after oral cassette dosing. Dose was 5 mg/kg, application volume was 5 mL/kg, vehicle was 5% solutol, 95% NaCl solution (at 0.9% saline concentration). At each designated time point (0.5, 1, 2, 4, 8 and 24 h after dosing), 20 μL whole blood were collected from the tail vein into Li-heparin tubes, frozen on dry ice within 1-2 minutes of sampling and stored at −20° C. until processed for LC-MS analysis. The obtained data is as follows:
as §2, with “(0.25, 0.5,” for “(0.5,”, “4 and” for “4,”, “8” for “8 and 24”, “analysis.” for “analysis. The obtained data is as follows:”

SMILES | IC50 [1] [µM] | other results
[2H]C([2H])(CC(C)(C)O)n1ncc(-c2onc(-c3c(F)cccc3Cl)c2C(=O)OC)c1C(F)(F)F [Example 7, Methyl 3-(2-chloro-6-fluorophenyl)-5-(1-(3-hydroxy-3-methylbutyl-1,1-d2)-5-(tri-fluoromethyl)-1H-pyrazol-4-yl)isoxazole-4-carboxylate] | 0.01 to 0.1 | CC50 [2]: 20 µM; EC50 [3]: < 0.1 µM
[2H]c1nc(-c2c(-c3c(F)cccc3Cl)noc2-c2cnn(-c3cccc(Cl)c3)c2C(F)(F)F)nc([2H])c1[2H] [Example 103, 3-(2-Chloro-6-fluorophenyl)-5-(1-(3-chlorophenyl)-5-(trifluoromethyl)-1H-pyrazol-4-yl)-4-(pyrimidin-2-yl-d3)isoxazole] | 0.01 to 0.1 | –
[2H][C@]1(n2ncc(-c3onc(-c4c(F)cccc4Cl)c3-c3ncccn3)c2C(F)F)C[C@](C)(O)C1 [Example 4-1/1] | 0.1 to 1 | –
[2H]C([2H])(CC(C)(C)O)n1ncc(-c2onc(-c3c(F)cccc3Cl)c2-c2ncccn2)c1COC [10/2] | 0.1 to 1 | CC50 [2]: > 100 µM; EC50 [3]: 1 to 50 µM
[2H]C([2H])(OCC)c1c(-c2c(F)cccc2Cl)noc1-c1cnn(-c2cccc(Cl)c2)c1C(F)(F)F [110/3] | 0.01 to 0.1 | –
[2H]C([2H])(CC(C)(C)O)n1ncc(-c2onc(-c3c(F)cc(OCCN4CCOCC4)cc3Cl)c2-c2ncccn2)c1C(F)(F)F [Example 6, 4-(4-(3-(2-Chloro-6-fluoro-4-(2-morpholinoethoxy)phenyl)-4-(pyrimidin-2-yl)isoxazol-5-yl)-5-(trifluoromethyl)-1H-pyrazol-1-yl)-2-methylbutan-4,4-d2-2-ol] | 0.1 to 1 | CC50 [2]: 27 µM; EC50 [3]: 0.1 to 1 µM
[2H]C([2H])(CC(C)(C)O)n1ncc(-c2onc(-c3c(F)cccc3Cl)c2-c2ncccn2)c1C1CC1 [10/3] | 0.1 to 1 | CC50 [2]: > 100 µM; EC50 [3]: 0.1 to 1 µM
[2H]C([2H])([C@H](C)O)n1ncc(-c2onc(-c3c(F)cccc3Cl)c2-c2ncccn2)c1C(F)(F)F [Example 1, (S)-1-(4-(3-(2-Chloro-6-fluorophenyl)-4-(pyrimidin-2-yl)isoxazol-5-yl)-5-(trifluoromethyl)-1H-pyrazol-1-yl)propan-1,1-d2-2-ol] | 0.01 to 0.1 | CC50 [2]: 22 µM; EC50 [3]: < 0.1 µM
[2H]C([2H])(CC(C)(C)O)n1ncc(-c2onc(-c3c(F)cccc3Cl)c2-c2ncccn2)c1C(F)F [Example 4, 4-(4-(3-(2-Chloro-6-fluorophenyl)-4-(pyrimidin-2-yl)isoxazol-5-yl)-5-(difluoromethyl)-1H-pyrazol-1-yl)-2-methylbutan-4,4-d2-2-ol] | 0.01 to 0.1 | CC50 [2]: > 100 µM; EC50 [3]: < 0.1 µM
[2H][C@]1(n2ncc(-c3onc(-c4ccccc4Cl)c3-c3ncccn3)c2C(F)(F)F)C[C@@](C)(O)C1 [2-2/1] | 0.01 to 0.1 | –
[2H][C@]1(n2ncc(-c3onc(-c4c(F)cccc4Cl)c3-c3ncccn3)c2C(F)(F)F)C[C@@](C)(O)C1 [Example 2-2, (1s,3s)-3-(4-(3-(2-chloro-6-fluorophenyl)-4-(pyrimidin-2-yl)isoxazol-5-yl)-5-(trifluoromethyl)-1H-pyrazol-1-yl)-1-methylcyclobutan-3-d-1-ol] | 0.01 to 0.1 | –
[2H]c1nc(-c2c(-c3c(F)cccc3Cl)noc2-c2cnn(C([2H])([2H])CC(C)(C)O)c2C(F)(F)F)nc([2H])c1[2H] [Example 3-3] | 0.01 to 0.1 | –
[2H][C@]1(n2ncc(-c3onc(-c4c(F)cccc4Cl)c3-c3ncccn3)c2C(F)F)C[C@@](C)(O)C1 [4-2/1] | 0.01 to 0.1 | –
[2H]C([2H])(OC1CC1)c1c(-c2c(F)cc(F)cc2Cl)noc1-c1cnn(-c2cccc(Cl)c2)c1C(F)(F)F [Example 111/1] | 0.1 to 1 | –
[2H][C@]1(n2ncc(-c3onc(-c4c(F)cccc4Cl)c3-c3ncccn3)c2C(F)(F)F)C[C@](C)(O)C1 [Example 2-1, (1r,3r)-3-(4-(3-(2-Chloro-6-fluorophenyl)-4-(pyrimidin-2-yl)isoxazol-5-yl)-5-(trifluoro-methyl)-1H-pyrazol-1-yl)-1-methylcyclobutan-3-d-1-ol] | 0.1 to 1 | –
[2H]C([2H])([2H])C([2H])([2H])OC(=O)c1c(-c2c(F)cccc2Cl)noc1-c1cnn(-c2cccc(Cl)c2)c1C(F)(F)F [Example 100/1] | < 0.01 | –
[2H]C([2H])(OC1COC1)c1c(-c2c(F)cccc2Cl)noc1-c1cnn(-c2cccc(Cl)c2)c1C(F)(F)F [110/2] | 0.01 to 0.1 | –
[2H]c1nc(-c2c(-c3c(F)cccc3Cl)noc2-c2cnn(C([2H])([2H])CC(C)(C)O)c2C(F)(F)F)sc1[2H] [Example 3-2] | < 0.01 | –
[2H]C([2H])([2H])OC([2H])([2H])c1c(-c2c(F)cccc2Cl)noc1-c1cnn(-c2cccc(Cl)c2)c1C(F)(F)F [Example 110, 3-(2-Chloro-6-fluorophenyl)-5-(1-(3-chlorophenyl)-5-(trifluoromethyl)-1H-pyrazol-4-yl)-4-((methoxy-d3)methyl-d2)isoxazole] | < 0.01 | CC50 [2]: > 100 µM; EC50 [3]: < 0.1 µM
[2H]c1c([2H])c(F)c(-c2noc(-c3cnn(-c4cccc(Cl)c4)c3C(F)(F)F)c2C(=O)OC)c(Cl)c1[2H] [Example 104, Methyl 3-(2-chloro-6-fluorophenyl-3,4,5-d3)-5-(1-(3-chlorophenyl)-5-(trifluoro-methyl)-1H-pyrazol-4-yl)isoxazole-4-carboxylate] | 0.01 to 0.1 | –
[2H]C([2H])(OC1CC1)c1c(-c2c(F)cccc2Cl)noc1-c1cnn(-c2cc(F)cc(Cl)c2)c1C(F)(F)F [111/3] | 0.01 to 0.1 | –
[2H]C([2H])(OC(C)C)c1c(-c2c(F)cccc2Cl)noc1-c1cnn(-c2cc(F)cc(Cl)c2)c1C(F)(F)F [111/4] | 0.01 to 0.1 | –
[2H]c1c([2H])c(F)c(-c2noc(-c3cnn(C([2H])([2H])CC(C)(C)O)c3C(F)(F)F)c2-c2ncccn2)c(Cl)c1[2H] [5/2] | < 0.01 | –
[2H]c1nc(-c2c(-c3c(F)cccc3Cl)noc2-c2cnn(-c3cccc(Cl)c3)c2C(F)(F)F)sc1[2H] [Example 107, 3-(2-Chloro-6-fluorophenyl)-5-(1-(3-chlorophenyl)-5-(trifluoromethyl)-1H-pyrazol-4-yl)-4-(thiazol-2-yl-d2)isoxazole] | 0.01 to 0.1 | half-life [4]: 1.6 h; AUC(0-t) ([4]; read-out: AUC0-8 h): 0.871 µg·h/mL
[2H]C([2H])(OC(F)(F)F)c1c(-c2c(F)cccc2Cl)noc1-c1cnn(-c2cccc(Cl)c2)c1C(F)(F)F [Example 109, 3-(2-Chloro-6-fluorophenyl)-5-(1-(3-chlorophenyl)-5-(trifluoromethyl)-1H-pyrazol-4-yl)-4-((trifluoromethoxy)methyl-d2)isoxazole] | 0.01 to 0.1 | –
[2H][C@]1(n2ncc(-c3onc(-c4ccccc4Cl)c3-c3ncccn3)c2C(F)(F)F)C[C@](C)(O)C1 [Example 2-1/1] | 0.1 to 1 | –
[2H]c1cc([2H])c(-n2ncc(-c3onc(-c4c(F)cccc4Cl)c3C(=O)OC)c2C(F)(F)F)c([2H])c1Cl [Example 105, Methyl 3-(2-chloro-6-fluorophenyl)-5-(1-(3-chlorophenyl-2,4,6-d3)-5-(trifluoro-methyl)-1H-pyrazol-4-yl)isoxazole-4-carboxylate] | < 0.01 | –
[2H]c1cc([2H])c(-n2ncc(-c3onc(-c4c(F)cccc4Cl)c3-c3nccs3)c2C(F)(F)F)c([2H])c1Cl [Example 106, 3-(2-Chloro-6-fluorophenyl)-5-(1-(3-chlorophenyl-2,4,6-d3)-5-(trifluoromethyl)-1H-pyrazol-4-yl)-4-(thiazol-2-yl)isoxazole] | < 0.01 | –
[2H]C([2H])(OC(C)C)c1c(-c2c(F)cc(F)cc2Cl)noc1-c1cnn(-c2cccc(Cl)c2)c1C(F)(F)F [111/2] | 0.1 to 1 | –
